Literature values in patent EP3744320A1, “PHAR[…] C[…]” (Alfred E. Tiefenbacher (GmbH & Co. KG), priority 2019, dated 2020).

CN1CCc2nc(C(=O)N[C@@H]3C[C@@H](C(=O)N(C)C)CC[C@@H]3NC(=O)C(=O)Nc3ccc(Cl)cn3)sc2C1 [edoxaban, N'-(5-chloropyridin-2-yl)-N-[(1S,2R,4S)-4-(dimethylcarbamoyl)-2-[(5-methyl-6,7-dihydro-4H-[1,3]thiazolo[5,4-c]pyridine-2-carbonyl)amino]cyclohexyl]oxamide]
time of peak plasma concentrations (administered in vivo): 1 to 2 h | absolute bioavailability (in vivo): approximately 62% | absorbed in the upper gastrointestinal tract (in vivo): approximately 85%
